We go through 21 compounds from ChEMBL document CHEMBL3853358, “Concise SAR Exploration Based on the "Head-to-Tail" Approach: Discovery of PI4KIIIα Inhibitors Bearing Diverse Scaffolds” (ACS Med Chem Lett, 2016).

The species named for series [1] is Homo sapiens. Kind of series: Selectivity ratio of IC50 for human Flag-tagged PI4K3beta expressed in insect cells to IC50 for human Flag-tagged PI4K3alpha expressed in insect cells.
The subject of series [2] is Hepatitis C virus. Kind of series: Antiviral activity against HCV genotype 1b Con1 infected in human Huh5-2 cells co-expressing subgenomic HCV replicon NS3 assessed as reduction in viral replication after 2 days by luciferase reporter gene assay. It counts as functional, cell-based, Hepacivirus hominis. To be noted: genotype 1b Con1, Huh-5-2, 48 h.
Series [3] is described as follows: Inhibition of human Flag-tagged PI4K3alpha expressed in insect cells preincubated with enzyme followed by PS:PI substrate and ATP addition measured after 60 mins by HTRF Transcreener ADP assay.
Series [4] can be described thus: Inhibition of human Flag-tagged PI4K3beta expressed in insect cells preincubated with enzyme followed by PS:PI substrate and ATP addition measured after 60 mins by HTRF Transcreener ADP assay. For orientation: Time-resolved FRET reads energy transfer from a long-lived donor to a nearby acceptor.
Series [5] in a line: Inhibition of human Flag-tagged PI4K3alpha expressed in insect cells preincubated with enzyme followed by PS:PI substrate and ATP addition measured after 60 mins by ADP-Glo kinase assay. In general terms: ADP-Glo first removes unused ATP, then detects ADP through luciferase.
The nature of series [6]: Inhibition of human Flag-tagged PI4K3beta expressed in insect cells preincubated with enzyme followed by PS:PI substrate and ATP addition measured after 60 mins by ADP-Glo kinase assay.
The target of series [7] is Phosphatidylinositol 4,5-bisphosphate 3-kinase catalytic subunit alpha isoform (Homo sapiens, UniProt P42336). Kind of series: Inhibition of PI3Kalpha (unknown origin) preincubated prior addition of PIP2 as substrate and ATP measured after 30 mins by HTRF assay.
Sequence of Phosphatidylinositol 4,5-bisphosphate 3-kinase catalytic subunit alpha isoform (P42336 whole entry, canonical isoform): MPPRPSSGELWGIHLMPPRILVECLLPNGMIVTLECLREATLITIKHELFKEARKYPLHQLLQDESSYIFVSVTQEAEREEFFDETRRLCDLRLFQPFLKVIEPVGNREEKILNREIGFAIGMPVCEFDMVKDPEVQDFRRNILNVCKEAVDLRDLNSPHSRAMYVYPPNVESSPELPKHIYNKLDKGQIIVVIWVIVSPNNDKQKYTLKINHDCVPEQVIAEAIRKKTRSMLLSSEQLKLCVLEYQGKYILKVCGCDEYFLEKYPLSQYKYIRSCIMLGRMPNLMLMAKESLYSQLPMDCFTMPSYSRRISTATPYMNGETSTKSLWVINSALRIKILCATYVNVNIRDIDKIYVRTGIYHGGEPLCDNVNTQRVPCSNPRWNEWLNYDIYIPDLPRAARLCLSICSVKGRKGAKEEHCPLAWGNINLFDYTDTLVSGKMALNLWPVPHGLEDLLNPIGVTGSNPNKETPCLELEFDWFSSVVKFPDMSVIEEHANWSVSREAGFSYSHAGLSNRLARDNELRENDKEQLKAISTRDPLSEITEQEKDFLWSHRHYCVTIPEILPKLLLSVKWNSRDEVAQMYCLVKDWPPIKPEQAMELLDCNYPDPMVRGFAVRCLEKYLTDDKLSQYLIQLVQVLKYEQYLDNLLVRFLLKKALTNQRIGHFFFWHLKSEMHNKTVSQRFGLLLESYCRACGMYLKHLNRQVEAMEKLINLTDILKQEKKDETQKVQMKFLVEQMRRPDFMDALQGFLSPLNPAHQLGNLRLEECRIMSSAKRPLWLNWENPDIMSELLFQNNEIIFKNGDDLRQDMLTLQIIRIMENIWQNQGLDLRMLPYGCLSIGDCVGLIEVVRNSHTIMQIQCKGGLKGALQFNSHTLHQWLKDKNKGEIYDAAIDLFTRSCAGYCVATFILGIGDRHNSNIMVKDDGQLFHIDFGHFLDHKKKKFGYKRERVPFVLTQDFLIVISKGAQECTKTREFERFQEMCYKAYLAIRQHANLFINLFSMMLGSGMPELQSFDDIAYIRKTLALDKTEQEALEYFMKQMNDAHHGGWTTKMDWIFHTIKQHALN
In series [8] the target is Phosphatidylinositol 4,5-bisphosphate 3-kinase catalytic subunit beta isoform (Homo sapiens, UniProt P42338). Kind of series: Inhibition of PI3Kbeta (unknown origin) preincubated prior addition of PIP2 as substrate and ATP measured after 30 mins by HTRF assay.
Sequence of Phosphatidylinositol 4,5-bisphosphate 3-kinase catalytic subunit beta isoform (P42338 whole entry, canonical isoform): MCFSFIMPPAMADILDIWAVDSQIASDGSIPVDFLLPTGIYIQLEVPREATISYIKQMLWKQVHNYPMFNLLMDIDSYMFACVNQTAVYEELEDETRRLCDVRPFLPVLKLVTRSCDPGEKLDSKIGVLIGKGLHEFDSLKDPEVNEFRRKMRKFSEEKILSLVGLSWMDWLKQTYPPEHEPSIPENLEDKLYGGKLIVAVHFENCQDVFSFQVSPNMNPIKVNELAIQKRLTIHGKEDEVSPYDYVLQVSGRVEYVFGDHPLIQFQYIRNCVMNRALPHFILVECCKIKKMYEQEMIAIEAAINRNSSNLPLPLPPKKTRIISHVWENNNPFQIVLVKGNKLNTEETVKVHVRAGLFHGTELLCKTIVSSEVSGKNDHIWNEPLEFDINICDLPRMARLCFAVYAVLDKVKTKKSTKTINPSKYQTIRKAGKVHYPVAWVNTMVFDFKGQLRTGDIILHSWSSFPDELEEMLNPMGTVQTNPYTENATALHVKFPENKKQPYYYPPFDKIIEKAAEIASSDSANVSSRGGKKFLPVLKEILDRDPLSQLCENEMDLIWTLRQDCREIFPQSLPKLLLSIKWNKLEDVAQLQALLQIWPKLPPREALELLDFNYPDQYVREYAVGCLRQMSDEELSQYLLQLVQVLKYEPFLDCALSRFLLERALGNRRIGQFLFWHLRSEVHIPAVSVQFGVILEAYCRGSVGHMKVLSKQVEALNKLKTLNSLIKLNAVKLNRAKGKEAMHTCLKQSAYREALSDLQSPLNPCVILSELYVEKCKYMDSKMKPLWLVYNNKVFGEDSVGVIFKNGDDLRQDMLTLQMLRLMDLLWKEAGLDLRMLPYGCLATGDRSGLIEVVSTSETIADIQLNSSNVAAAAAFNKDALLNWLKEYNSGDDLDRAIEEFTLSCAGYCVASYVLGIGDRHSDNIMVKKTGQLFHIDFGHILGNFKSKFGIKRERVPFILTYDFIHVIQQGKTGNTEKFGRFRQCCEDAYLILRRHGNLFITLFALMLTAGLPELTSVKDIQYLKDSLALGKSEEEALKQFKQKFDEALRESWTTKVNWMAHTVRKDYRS
The test system of series [9] is Hepatitis C virus. Kind of series: Antiviral activity against HCV genotype […] Con1 infected in human Huh5-2 cells co-expressing subgenomic HCV replicon NS3 assessed as reduction in viral replication after 2 days by luciferase reporter gene assay. It counts as functional, cell-based, Hepacivirus hominis, genotype 1b Con1. The note with it: Huh-5-2, 48 h. (In antiviral work, replicon cells carry a viral genome segment that copies itself.)

Series [10] is described as follows: Metabolic stability in rat liver microsomes assessed as compound remaining at 5 uM measured up to 60 mins. To be noted: read-out: Stability. The class given is ADME.
Series [11] in a line: Metabolic stability in human liver microsomes assessed as compound remaining at 5 uM measured up to 60 mins. It counts as ADME. The note with it: read-out: Stability.
Series [12] is described as follows: Terminal half life in CD(Sprague-Dawley) rat at 0.3 mg/kg, iv administered as single dose. It counts as ADME, organism-based. To be noted: in vivo, read-out: beta t1/2 (converted).
Series [13] is described as follows: Total clearance in CD(Sprague-Dawley) rat at 0.3 mg/kg, iv administered as single dose measured up to 25 hrs. It counts as ADME, organism-based. The note with it: in vivo.
Series [14] in a line: Volume of distribution at steady state in CD(Sprague-Dawley) rat at 0.3 mg/kg, iv administered as single dose measured up to 25 hrs. To be noted: in vivo, read-out: Vdss. It counts as ADME, organism-based.
The nature of series [15]: AUC (0 to infinity) in CD(Sprague-Dawley) rat at 1 mg/kg, po administered as single dose measured up to 25 hrs. Also on record: dose 1 mg/kg, route oral, time infinity. It counts as ADME, organism-based. To be noted: in vivo.
Series [16] can be described thus: MRT in CD(Sprague-Dawley) rat at 1 mg/kg, po administered as single dose. The class given is ADME, organism-based. To be noted: in vivo.
Series [17] can be described thus: Oral bioavailability in CD(Sprague-Dawley) rat at 1 mg/kg administered as single dose measured up to 25 hrs. The class given is ADME, organism-based. To be noted: in vivo.

Broadly, the EC50 is the concentration needed to bring the measured effect to its halfway point. One may read the IC50 as the concentration that inhibits the measured activity by half. Lower therefore signals greater potency in that assay. With `COCc1ncc(-c2ccc3ncc(-c4ccccc4)c(=O)n3c2)cc1NS(=O)(=O)c1ccc(F)cc1F`, the Ratio IC50 in [1] is 1030. Besides, the EC50 in series [2] was 68 nM. Besides, the IC50 turned out to be 8 nM in [3] and 8200 nM in series [4].
The corresponding values for `COCc1ncc(-c2c3ccc(-c4ccccc4)cc3nn2C)cc1NS(=O)(=O)c1ccc(F)cc1F` are 96, 700 nM, 260 nM and 18000 nM.
As to `COCc1ncc(-c2ccn3nnc(-c4ccccc4)c3c2)cc1NS(=O)(=O)c1ccc(F)cc1F`, in series [1], the Ratio IC50 is greater than 110. Also, the EC50 in [2] was found to be 780 nM. In addition, the IC50 in series [3] was 93 nM; in series [4] it was greater than 10000 nM.
The like results for `COCc1ncc(-c2ccc3ncn(-c4ccccc4)c3c2)cc1NS(=O)(=O)c1ccc(F)cc1F` were, in that order, 32, 880 nM, 13 nM and 410 nM.
Regarding `COc1ncc(-c2ccc3ncn(-c4ccccc4)c(=O)c3c2)cc1S(=O)(=O)Nc1ccc(F)cc1F`, the IC50 in [5] is 190 nM; in series [6], greater than 30000 nM. In series [1], the Ratio IC50 is greater than 160. Besides, the EC50 in series [2] came to 99 nM.
Consider `COCc1ncc(-c2c3ccc(C4=CCOCC4)cc3nn2C)cc1NS(=O)(=O)c1ccc(F)cc1F`, for which the Ratio IC50 in series [1] came out at 58. In addition, in series [2], the EC50 came to 78 nM. Besides, the IC50 in [3] was determined as 16 nM; in series [4] it was 920 nM.
One may read the clearance as the rate of elimination divided by the concentration. In general, AUC(0-inf) refers to the area under the concentration-time curve extrapolated to infinity. As a reminder, the MRT is a mean duration of stay, worked out from the concentration-time curve. For orientation: bioavailability means dose-corrected exposure relative to a reference, in per cent. Turning to `COCCn1cnc2ccc(-c3cnc(COC4CC4)c(NS(=O)(=O)c4ccc(F)cc4F)c3)cc2c1=O`, the Ratio IC50 in series [1] was 710. Moreover, the EC50 in series [2] turned out to be 6.8 nM; in [9], 10 nM. Further, the IC50 in [3] is 0.31 nM; in series [4], 220 nM; in series [7], 240 nM; in series [8] it was 1400 nM. For the same compound, the remaining at 1 h, 5 µM in series [10] worked out at 91%; in [11], 104%. For the same compound, the half-life in [12] was 3.3 h. This compound also gave a clearance in [13] of 0.667 mL/min/kg. Besides, in series [14], the Vd is 0.2 L/kg. The AUC(0-inf) in series [15] is 42 µM·h. The same compound showed an MRT in series [16] of 5.5 h. The same compound displayed a bioavailability in [17] of 91%.
With `COCc1ncc(-c2ccc3nn(C)c(C4=CCOCC4)c3c2)cc1NS(=O)(=O)c1ccc(F)cc1F`, in series [1], the Ratio IC50 came out at 32. Besides, in series [2], the EC50 is 50 nM. The values for the IC50 in series [3] and in series [4] were 3.1 nM and 98 nM, respectively.
On to `COc1ncc(-c2ccc3ncn(-c4ccccc4)c(=O)c3c2)cc1NS(=O)(=O)c1ccc(F)cc1F`, for which the IC50 in [5] amounted to 14 nM; in [6], 780 nM. In addition, the Ratio IC50 in series [1] stood at 56.
`COc1ncc(-c2ccc3ncn(-c4ccccc4)c(=O)c3c2)cc1CS(=O)(=O)c1ccc(F)cc1F`: the results for the IC50 in series [5] and in [6] were greater than 1000 nM and greater than 30000 nM, respectively. Further, the Ratio IC50 in series [1] was greater than 30. Moreover, in series [2], the EC50 is greater than 30000 nM.
Consider `COCc1ncc(-c2ccc3nn(C)c(-c4ccccc4)c3c2)cc1NS(=O)(=O)c1ccc(F)cc1F`, for which the Ratio IC50 in series [1] came out at 22. For the same compound, in series [2], the EC50 was determined as 610 nM. Moreover, the values for the IC50 in series [3] and in series [4] were 9.1 nM and 200 nM, respectively.
The like results for `COCc1ncc(-c2c3ccc(C4CCOCC4)cc3nn2C)cc1NS(=O)(=O)c1ccc(F)cc1F` were, in that order, 53, 31 nM, 5.7 nM and 300 nM.
The corresponding values for `CCCn1cnc2ccc(-c3cnc(COC)c(NS(=O)(=O)c4ccc(F)cc4F)c3)cc2c1=O` are 120, 10 nM, 1.9 nM and 230 nM.
With `COCc1ncc(-c2ccc3ncn(CCO)c(=O)c3c2)cc1NS(=O)(=O)c1ccc(F)cc1F`, in series [1], the Ratio IC50 stood at 260. In addition, the EC50 in series [2] came to 81 nM. Moreover, the values for the IC50 in series [3] and in [4] were 2.5 nM and 660 nM, respectively.
In the case of `COCCn1cnc2ccc(-c3cnc(COC)c(NS(=O)(=O)c4ccc(F)cc4F)c3)cc2c1=O`, the Ratio IC50 in series [1] was determined as 130. The EC50 in series [2] is 13 nM. Also, the IC50 in [3] worked out at 1 nM; in [4], 130 nM.
For `COCc1ncc(-c2ccc3nnn(-c4ccccc4)c3c2)cc1NS(=O)(=O)c1ccc(F)cc1F`, the Ratio IC50 in series [1] is 74. For the same compound, in series [2], the EC50 is 1000 nM. The IC50 stood at 50 nM in series [3] and 3700 nM in series [4].
The like results for `COCc1ncc(-c2ccc3nn(C)c(C4CCOCC4)c3c2)cc1NS(=O)(=O)c1ccc(F)cc1F` were, in that order, 20, 29 nM, 2 nM and 39 nM.
Consider `COCc1ncc(-c2ccc3ncc(=O)n(-c4ccccc4)c3c2)cc1NS(=O)(=O)c1ccc(F)cc1F`, for which the Ratio IC50 in series [1] came to 640. In series [2], the EC50 was 41 nM. Further, the IC50 in series [3] is 2.2 nM; in series [4] it was 1400 nM.
For `COCc1ncc(-c2ccc3ncn(-c4ccccc4)c(=O)c3c2)cc1NS(=O)(=O)c1ccc(F)cc1F`, the IC50 was 4.1 nM in [5] and 4900 nM in series [6]. For the same compound, in [1], the Ratio IC50 is 1200. For the same compound, the EC50 in [2] is 20 nM.
The corresponding values for `COC(C)c1ncc(-c2ccc3ncn(-c4ccccc4)c(=O)c3c2)cc1NS(=O)(=O)c1ccc(F)cc1F` (racemic) are 100 nM, greater than 30000 nM, greater than 3000 and 400 nM.
On to `COCc1ncc(-c2ccc3ncn(CCS(C)(=O)=O)c(=O)c3c2)cc1NS(=O)(=O)c1ccc(F)cc1F`, for which the Ratio IC50 in [1] came out at 100. Moreover, in series [2], the EC50 is 88 nM. The figures for the IC50 in [3] and in [4] were 1.6 nM and 160 nM, respectively.
